Measured values published in paper PMC12668308, “A Novel Antimalarial Agent that Inhibits Protein Synthesis in Plasmodium falciparum” (Angewandte Chemie (International Ed. in English), 2025).
Like-named read-outs stand apart in the source and are kept apart here.

Experiments:
Type in all cases: cell-based, Plasmodium falciparum
[1] = system: Dd2 DDD107458 (Dd2 + pfeEF2); test: [3H]-hypoxanthine incorporation assay
Method: (§1) ^[a]72-h [^3H] hypoxanthhine incorporation assay. Data is expressed as mean±s.d..
(§2) P. falciparum asexual blood stage parasites were cultured in human red blood cells (RBC, Blutspende SRK, Zurich) at a hematocrit of 5% in RPMI 1640 medium. The RPMI 1640 medium (ThermoFisher Scientific #51800−043) was supplemented with the following: 24 mM NaHCO3 (pH 7.3, Sigma-Aldrich #31437−500G-R), 25 mM Hepes (Sigma-Aldrich #H4034−500G), 0.36 mM hypoxanthine (Sigma-Aldrich # H9377−25G), 100 µg mL^-1 neomycin (Sigma-Aldrich #N6386−100G) and 0.5% Albumax II (Thermo Fisher #11021−045). Additionally, 2 mM choline chloride (279 mg/L, Sigma-Aldrich #C7527−100G) was added to the culture to block the induction of sexual commitment as described. ^[31^] The RPMI 1640 medium and components were dissolved in water (Milli-Q purified), stirred for at least 3 h, and then sterile filtered (0.22 μm pore size) with a bottle top filter (Corning # 431118). Parasite cultures were maintained in an atmosphere of 3% O2, 4% CO2, and 93% N2 in air-tight chambers at 37 °C. The [^3H]-hypoxanthine incorporation assay was used to test compound activity in the specific parasite lines as described.^[32^] Briefly, compounds were dissolved in DMSO (10 mM) and diluted in a hypoxanthine-free culture medium. A limiting dilution was performed over a 64-fold range (6-step twofold dilution) in a 96-well plate in duplicates. For every starting concentration, a limiting dilution was performed over a 64-fold range (6-step twofold dilution) in a 96-well plate in two biological duplicates. Parasites were added at 100 µL to each well containing the compound to obtain a final parasitemia of 0.3% and haematocrit of 1.25%. The plates were incubated for 48 h before 0.25 µCi of [^3H]-hypoxanthine was added per well for an additional 24 h. Parasites were harvested on a glass-fiber filter with a Microbeta FilterMate cell harvester (Perkin Elmer, Waltham, USA) and radioactivity was counted using a MicroBeta2 liquid scintillation counter (Perkin Elmer, Waltham, US). The results were recorded, processed by subtraction of the mean background signal obtained from the uninfected RBC controls and expressed as percentage of untreated controls. The fifty percent inhibitory concentration (IC50) was calculated by using nonlinear, four parameter (variable slope) curve fitting as described ^[33^] after importing into GraphPad Prism (version 8.3.0).

[2] = system: Dd2 ELQ300 (Dd2 + pfcytb); test: [3H]-hypoxanthine incorporation assay
Method: as §1, §2

P. falciparum Dd2 = test: [3H]-hypoxanthine incorporation assay
Method: as §1, §2

P. falciparum K1 = test: [3H]-hypoxanthine incorporation assay
Method: as §1, §2

[3] = system: Dd2 Fosmidomycin (Dd2 + pfdxr); test: [3H]-hypoxanthine incorporation assay
Method: as §1, §2

[4] = system: NF54/iGP1_RE9H^ulg8 stage V gametocytes; test: Dose-response assay on gametocytes, MitoTracker-based readout
Source text: Compound 31 was also found to be active against the sexual stage of P. falciparum using the MitoTracker‐based readout. This readout is based on quantifying MitoTracker‐based gametocyte viability as recently described.^[ [7] ^] Briefly, high content imaging of MitoTracker‐ and Hoechst‐stained cells and automated image analysis using the MetaXpress software was used to determine the number of viable gametocytes based on mitochondrial activity and cellular shape.
Sexual commitment was induced in the NF54/iGP1_RE9H^ulg8 parasite line as described in ^[18,^52]. Synchronous ring stage cultures at 2-3% parasitemia (8-16 hpi) were grown for 48 hours in a culture medium lacking D-(+)-glucosamine hydrochloride (GlcN) and containing 1.25 µM Shield-1 to induce GDV1-GFP-DD expression. The induction medium was replaced with standard culture medium containing 50 mM N-acetyl-glucosamine (GlcNAc) for six consecutive days.) to selectively kill asexual parasites.^[53^,54^] Gametocytes were maintained in standard culture medium from day 7 onwards. During the first seven days of gametocyte development, the culture medium was exchanged daily and every second day subsequently. Visual inspection of Hemacolor-stained thin blood smears with a 100x immersion oil objective (total magnification = 1000x) was performed to assess gametocytemia.
Dose response assays were performed in biological triplicates, each in technical duplicate, as described in ^[18, ^55]. Synchronous NF54/iGP1_RE9H^ulg8 gametocyte cultures were resuspended at ~2% gametocytemia in an assay medium at 3% haematocrit. […] MitoTracker-based gametocyte viability was quantified using a modified version of published protocols.^[56^,57^] […] After imaging two technical replicates, the results were averaged and normalized to the plateau of sub-lethal compound concentrations using the “first mean in each data set” function and IC50 values were calculated using nonlinear, four parameter (variable slope) curve fitting in GraphPad Prism (version 8.3.0).

[5] = Plasmodium falciparum, DD2, 72 h

Compound: CN1CCN(Cc2ccc(O)c(NC(=O)c3cccc(Oc4cc(C(F)(F)F)ccn4)c3)c2)CC1 [Compound 31, N-(2-hydroxy-5-((4-methylpiperazin-1-yl)methyl)phenyl)-3-((4-(trifluoromethyl)pyridin-2-yl)oxy)benzamide]
- IC50 fold shift relative to Dd2 strain ([1]; Dd2 DDD107458): 0.6
- IC50 [1, 5]: 5.6 ± 0.9 nM
- IC50 fold shift relative to Dd2 strain ([2]; Dd2 ELQ300): 0.5
- IC50 [2, 5]: 4.4 ± 0.1 nM
- IC50 fold shift relative to Dd2 strain (P. falciparum Dd2; Dd2): 1.0
- IC50 ratio relative to NF54 strain (P. falciparum Dd2; Dd2): 5.1
- IC50 (P. falciparum Dd2; [5]): 9.3 ± 0.4 nM
- IC50 ratio relative to NF54 strain (P. falciparum K1; K1): 0.7
- IC50 (P. falciparum K1; Plasmodium falciparum, K1, 72 h): 1.3 ± 0.2 nM
- IC50 fold shift relative to Dd2 strain ([3]; Dd2 Fosmidomycin): 0.3
- IC50 [3, 5]: 2.4 ± 0.6 nM
- IC50 ([4]; Plasmodium falciparum, NF54, 72 h, read-out: IC50 mature (stage V) gametocytes, 72 h exposure, MitoTracker readout, N = 3): 354 nM
- IC50 ([4]; read-out: IC50 mature (stage V) gametocytes, 72 h exposure, MitoTracker readout, N = 3): < 500 nM
- fold reduction in activity against the sexual stages compared to the asexual stage ([4]; stage V gametocytes vs NF54 asexual): 91 fold
